According to patent publication US20240108598A1, “Danegaptide for Use in the Treatment or Prevention of a Kidney Disease” (CIANA THERAPEUTICS APS, priority 2021, published 2024):

Columns and labels:
primary hPTECs [1] = test: qPCR of cell cycle and reno-protective marker mRNA; type: cell-based, human; conditions: TGFβ1 10 ng/mL alone, 12 h
Experimental: Primary hPTECs were cultured in low (5 mM) glucose±TGFβ1 (10 ng/mL)±danegaptide (100 nM) for 12 h. […] Danegaptide (100 nM) negated the increase in p16, p21, cyclinD1 (▴▴▴P<0.001; mean±SEM, n=3) and partly reversed the TGFβ1-evoked change in Klotho.
To determine if danegaptide can negate hemichannel-mediated regulation of common cell cycle and reno-protective markers, hPTECs were incubated with TGFβ1 (10 ng/mL)±danegaptide (100 nM) for 12 h and expression of candidate gene mRNA assessed through qPCR analysis.
RNA was extracted using an RNeasy mini kit (QIAGEN) and reverse transcribed (Invitrogen). Real-time PCR (SYBR GreenER, Invitrogen) was performed using a StepOne Plus instrument (Applied Biosystems Inc, Foster City, CA). cDNA expression was obtained by comparing to a standard curve of serially-diluted cDNA. The following primers were used: p16 (forward: […], reverse: […]), p21 (forward: […], reverse: […]), cyclinD1 (forward: […], reverse: […]), Klotho (forward: […], reverse: […]). Melt curve analysis confirmed primer specificity and checked for potential contamination.

Cx43 hemichannels = target: T1, Cx43 hemichannels (Homo sapiens, UniProt P17302); test: ATP biosensing (hemichannel mediated ATP release); type: cell-based; conditions: hPTECs; TGFβ1 10 ng/mL alone, 48 h; removal of extracellular calcium
T1 construct: host or cells: HK2 human kidney proximal tubule epithelial cell line
T1 sequence (P17302 whole entry): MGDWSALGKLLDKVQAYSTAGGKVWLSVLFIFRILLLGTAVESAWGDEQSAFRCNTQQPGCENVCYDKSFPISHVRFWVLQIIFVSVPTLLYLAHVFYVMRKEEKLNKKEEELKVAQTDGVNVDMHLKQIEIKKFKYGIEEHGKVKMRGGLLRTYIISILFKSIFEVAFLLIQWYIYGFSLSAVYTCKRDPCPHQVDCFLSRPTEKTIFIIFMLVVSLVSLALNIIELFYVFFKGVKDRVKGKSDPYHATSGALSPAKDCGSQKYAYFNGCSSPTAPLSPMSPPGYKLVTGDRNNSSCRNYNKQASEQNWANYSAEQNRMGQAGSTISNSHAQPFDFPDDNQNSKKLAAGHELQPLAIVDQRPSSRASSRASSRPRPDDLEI
Experimental: HK2 cells were cultured in low (5 mM) glucose with/without TGFβ1 (10 ng/ml)±danegaptide (50 or 100 nM) for 48 h. Representative biosensor traces show ATP release following removal of extracellular calcium. […] Peak responses were quantified by comparing against a known concentration of ATP (10 μM) and mean data±SEM plotted (E). Results are representative of 3 separate experiments (n=3; **P<0.01, […] ***P<0.001; one-way ANOVA and Tukey's post-test).
ATP biosensors (Sarissa Biomedical, Coventry UK) were used in a simultaneous dual-recording ampomeric setup as described previously (Price, G. W.; Chadjichristos, C. E.; Kavvadas, P.; Tang, S. C. W.; Yiu, W. H.; Green, C. R.; Potter, J. A.; Siamantouras, E.; Squires, P. E.; Hills, C. E. Blocking Connexin-43 mediated hemichannel activity protects against early tubular injury in experimental chronic kidney disease. Cell Commun. Signal. 2020, 18). A null biosensor was used to account for non-specific electro-active artefacts and subtracted from the ATP trace. Glycerol (2 mM) was included in all recording solutions to enable ATP detection. HK2 cells were seeded on glass coverslips (10 mm diameter) in low glucose DMEM/F12 (5 mmol/L) for 48 h, prior to an overnight serum-starvation. The cells were then incubated with TGFβ1 (10 ng/ml)±danegaptide (100 nM) for 48 h. The coverslips were transferred to a chamber containing Ca^2+-containing BSS perfused at 6 ml/min (37° C.) and left for 10 min to acclimatise. ATP and null biosensors were bent and lowered so that the electrode laid parallel to the cellular monolayer. Once a stable baseline occurred, perfusion of Ca^2+-free BSS stimulated hemichannel opening. After ATP release, Ca^2+-containing BSS was used to close hemichannels, followed by a calibration solution of ATP ([…]). Recordings were acquired at 4 Hz with a Micro CED (Mark2) interface using Spike (v8.03) software.

HK2 cells = test: MTT assay (cell viability); type: cell-based, human; conditions: TGFβ1 10 ng/mL alone, 48 h
Experimental: HK2 cells were cultured in low glucose (5 mM) for 48 h, prior to being serum-starved overnight and subsequently treated with TGFβ1 (10 ng/mL)±danegaptide (50 nM-1 μM) for 48 h (FIG. 1A, n=3).
The 3-(4,5-Dimethylthiazol-2-yl)-2,5-diphenyltetrazolium bromide (MTT) assay was performed as known in the art to assess the cytotoxic effects of danegaptide on cell proliferation. HK2 cells were seeded in 96-well plates and cultured in low glucose DMEM/F12 (5 mM) for 48 h, prior to overnight serum-starvation, then subsequently stimulated for 48 h with TGFβ1 (10 ng/ml)±danegaptide (50-1000 nM). Colourmetric measurement of formazan production corresponds to the number of viable cells.

primary hPTECs [2] = test: Inflammation antibody array, supernatant (Table 2); type: cell-based, human; conditions: hPTEC supernatant; TGF-β1 10 ng/mL alone, 48 h
Description: An inflammation antibody array was used to assess regulation of 31 candidate inflammatory proteins in supernatant from hPTEC cells treated with TGFβ1±danegaptide. Results are representative of 3 separate experiments and presented as mean±SEM, n=3 with key significances indicated (*P<0.05, **P<0.01, ***P<0.001; one-way ANOVA and Tukey's post-test).
A proteome profiler array (Human Cytokine Array Kit from R&D Systems, Oxfordshire, UK) was used, to determine if danegaptide negates TGFβ1-induced changes in expression and secretion of key pro-inflammatory mediators. Primary hPTECs were cultured as described above and treated with TGFβ1 (10 ng/mL)±danegaptide (100 nM) for 48 h.

Substance: TGFβ1: Recombinant hTGFβ1 (Sigma); pro-fibrotic cytokine used to stimulate the cells [reference compound]
- Klotho mRNA expression, of control (primary hPTECs [1]): 43.3±3.8%
- cyclinD1 mRNA expression, of control (primary hPTECs [1]): 253.2±7.7%
- p16 mRNA expression, of control (primary hPTECs [1]): 358.8±21.1%
- p21 mRNA expression, of control (primary hPTECs [1]): 221.8±12.9%
- ATP release (Cx43 hemichannels): 3.60 ± 0.29 µM
- cell viability (MTT) as compared to control (HK2 cells): 101.9±11.7%
- Angiogenin in supernatant (% compared to control) (primary hPTECs [2]): 184 ± 13.2%
- Cystatin C in supernatant (% compared to control) (primary hPTECs [2]): 169 ± 19.7%
- DPPIV in supernatant (% compared to control) (primary hPTECs [2]): 222 ± 24.3%
- ENA 78 in supernatant (% compared to control) (primary hPTECs [2]): 193 ± 17.7%
- Endoglin in supernatant (% compared to control) (primary hPTECs [2]): 101 ± 10.6%
- FGF7 in supernatant (% compared to control) (primary hPTECs [2]): 125 ± 11.3%
- Flt 3 Ligand in supernatant (% compared to control) (primary hPTECs [2]): 179 ± 6.5%
- G-CSF in supernatant (% compared to control) (primary hPTECs [2]): 171 ± 7.3%
- GM-CSF in supernatant (% compared to control) (primary hPTECs [2]): 213 ± 33.3%
- HGF in supernatant (% compared to control) (primary hPTECs [2]): 85 ± 15.8%
- ICAM-1 in supernatant (% compared to control) (primary hPTECs [2]): 191 ± 13.0%
- IFNg in supernatant (% compared to control) (primary hPTECs [2]): 123 ± 11.0%
- IGFBP-2 in supernatant (% compared to control) (primary hPTECs [2]): 259 ± 49.6%
- IGFBP-3 in supernatant (% compared to control) (primary hPTECs [2]): 147 ± 7.0%
- IL1A in supernatant (% compared to control) (primary hPTECs [2]): 109 ± 14.8%
- IL3 in supernatant (% compared to control) (primary hPTECs [2]): 127 ± 30.6%
- IL8 in supernatant (% compared to control) (primary hPTECs [2]): 138 ± 48.4%
- IL12 p70 in supernatant (% compared to control) (primary hPTECs [2]): 74 ± 11.5%
- IL13 in supernatant (% compared to control) (primary hPTECs [2]): 95 ± 16.4%
- Kallikrein 3 in supernatant (% compared to control) (primary hPTECs [2]): 75 ± 5.61%
- LIF in supernatant (% compared to control) (primary hPTECs [2]): 249 ± 32.1%
- MCP-1 in supernatant (% compared to control) (primary hPTECs [2]): 171 ± 14.3%
- MMP-9 in supernatant (% compared to control) (primary hPTECs [2]): 41 ± 8.8%
- PDGF-AA/BB in supernatant (% compared to control) (primary hPTECs [2]): 137 ± 9.7%
- RAGE in supernatant (% compared to control) (primary hPTECs [2]): 170 ± 16.3%
- RANTES in supernatant (% compared to control) (primary hPTECs [2]): 140 ± 8.6%
- Serpin E1 in supernatant (% compared to control) (primary hPTECs [2]): 91 ± 4.7%
- TFF3 in supernatant (% compared to control) (primary hPTECs [2]): 114 ± 22.2%
- TNF-α in supernatant (% compared to control) (primary hPTECs [2]): 176 ± 5.5%
- Thrombospondin-1 in supernatant (% compared to control) (primary hPTECs [2]): 120 ± 24.8%
- VEGF in supernatant (% compared to control) (primary hPTECs [2]): 209 ± 43.3%
